Common to all, as to format: biochemical
The target of experiment [1] is T1, human JAK1 (a.a. 837-1142) (Homo sapiens, UniProt P23458).
T1 construct: human JAK1 (a.a. 837-1142); His tag (N); made in house; host or cells: insect cells (baculovirus)
The experiment in a line: In vitro JAK kinase assay (HTRF, phosphorylation of a biotinylated peptide), JAK1. As to conditions: read-out: JAK1 IC50. The essentials: (§1)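 Phosphorylation of a biotinylated peptide by the JAK kinase domain, detected by HTRF with Eu-Py20 and SA-APC. ATP was 90 μM for JAK1, 30 μM for JAK2 and 3 μM for JAK3. Reactions ran 1 h at room temperature and were stopped with EDTA, followed by 40 min antibody binding.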
(In TR-FRET formats the signal depends on donor and acceptor labels being close together.)

For the next experiment, the target named is TYK2 (Homo sapiens, UniProt P29597). In words: TYK2 kinase inhibition (Table A1).
Experiment [2] deals with T2, human JAK3 (a.a. 781-1124) (Homo sapiens, UniProt P52333).
T2 construct: JAK3 (a.a. 781-1124); His tag (N); made in house; host or cells: insect cells (baculovirus)
The experiment in a line: In vitro JAK kinase assay (HTRF, phosphorylation of a biotinylated peptide), JAK3. The essentials: as §1

Experiment [3] deals with T3, human JAK2 (a.a. 828-1132) (Homo sapiens, UniProt O60674).
T3 construct: JAK2 (a.a. 828-1132); His tag (N); made in house; host or cells: insect cells (baculovirus)
The experiment in a line: In vitro JAK kinase assay (HTRF, phosphorylation of a biotinylated peptide), JAK2. The procedure, abridged:
as §1

Experiment [4] deals with T4, Recombinant Human Anaplastic Lymphoma Kinase (Homo sapiens, UniProt Q9UM73).
T4 construct: purchased Invitrogen, Carlsbad, Calif
In words: ALK HTRF kinase assay. The essentials: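 Readout was HTRF between a Eu-W1024 anti-phosphotyrosine antibody and streptavidin-APC bound to biotinylated peptide phosphorylated by recombinant human ALK. IC50 values came from a four-parameter logistic fit.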

The mark [5] stands for this setting: percentage inhibition of the example compound at a concentration of 500 nM or 1 mM (not specified which).
[6] abbreviates: compound at a concentration of 500 nM or 1 mM (not specified), cells shown as percentage.
[7] abbreviates: method AA1 (90 μM ATP) or AA2 (1000 μM ATP), not stated per value.
Where [8] appears, read: method AA1 (3 μM ATP) or AA2 (1000 μM ATP), not stated per value.
The mark [9] stands for this setting: method AA1 (30 μM ATP) or AA2 (1000 μM ATP), not stated per value.
[10] abbreviates: compound at 500 nM or 1 mM, 90 μM ATP.
Where [11] appears, read: Table B1, cells without percent sign.

Counter-ions that a name gives are not always drawn. Like-named read-outs stand apart in the source and are kept apart here.

As a reminder, the IC50 is the concentration that gives 50% inhibition.

T1 sequence (P23458 849-1154): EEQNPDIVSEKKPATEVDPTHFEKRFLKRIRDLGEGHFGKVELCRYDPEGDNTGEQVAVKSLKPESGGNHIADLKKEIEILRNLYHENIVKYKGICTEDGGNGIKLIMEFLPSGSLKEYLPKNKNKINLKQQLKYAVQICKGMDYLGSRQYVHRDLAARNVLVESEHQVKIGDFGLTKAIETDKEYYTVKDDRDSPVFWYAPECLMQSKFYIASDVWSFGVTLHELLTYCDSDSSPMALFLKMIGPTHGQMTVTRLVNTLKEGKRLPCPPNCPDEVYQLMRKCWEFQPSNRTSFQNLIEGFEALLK
Sequence of TYK2 (P29597 whole entry): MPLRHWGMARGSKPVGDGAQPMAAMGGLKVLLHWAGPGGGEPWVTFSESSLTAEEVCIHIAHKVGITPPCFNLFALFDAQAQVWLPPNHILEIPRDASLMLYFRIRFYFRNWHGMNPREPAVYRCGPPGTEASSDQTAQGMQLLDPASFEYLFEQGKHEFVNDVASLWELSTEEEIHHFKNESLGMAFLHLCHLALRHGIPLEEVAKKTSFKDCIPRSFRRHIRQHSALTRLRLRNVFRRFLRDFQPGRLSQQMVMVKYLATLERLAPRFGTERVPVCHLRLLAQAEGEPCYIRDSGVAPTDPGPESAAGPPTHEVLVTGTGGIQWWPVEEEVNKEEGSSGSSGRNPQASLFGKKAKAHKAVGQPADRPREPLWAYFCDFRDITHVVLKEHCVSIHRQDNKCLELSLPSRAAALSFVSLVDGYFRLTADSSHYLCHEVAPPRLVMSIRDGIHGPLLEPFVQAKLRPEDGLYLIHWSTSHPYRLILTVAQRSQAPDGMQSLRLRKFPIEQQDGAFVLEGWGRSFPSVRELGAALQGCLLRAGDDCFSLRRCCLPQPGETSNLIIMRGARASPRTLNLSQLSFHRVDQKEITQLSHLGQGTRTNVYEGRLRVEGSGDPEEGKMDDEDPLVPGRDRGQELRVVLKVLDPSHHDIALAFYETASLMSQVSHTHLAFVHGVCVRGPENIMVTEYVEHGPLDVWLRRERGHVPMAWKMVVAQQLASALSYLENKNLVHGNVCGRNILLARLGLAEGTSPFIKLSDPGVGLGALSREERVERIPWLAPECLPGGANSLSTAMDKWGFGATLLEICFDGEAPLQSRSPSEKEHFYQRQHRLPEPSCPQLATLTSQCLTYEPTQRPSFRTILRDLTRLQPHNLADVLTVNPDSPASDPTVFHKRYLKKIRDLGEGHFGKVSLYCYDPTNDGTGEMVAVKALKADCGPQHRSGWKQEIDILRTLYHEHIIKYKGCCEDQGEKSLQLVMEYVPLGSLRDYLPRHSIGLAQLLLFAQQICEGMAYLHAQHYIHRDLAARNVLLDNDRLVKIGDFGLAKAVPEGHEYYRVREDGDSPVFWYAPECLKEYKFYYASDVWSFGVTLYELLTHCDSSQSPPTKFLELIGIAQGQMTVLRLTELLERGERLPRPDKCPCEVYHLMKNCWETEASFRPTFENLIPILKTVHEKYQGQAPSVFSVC
T2 sequence (P52333 781-1124): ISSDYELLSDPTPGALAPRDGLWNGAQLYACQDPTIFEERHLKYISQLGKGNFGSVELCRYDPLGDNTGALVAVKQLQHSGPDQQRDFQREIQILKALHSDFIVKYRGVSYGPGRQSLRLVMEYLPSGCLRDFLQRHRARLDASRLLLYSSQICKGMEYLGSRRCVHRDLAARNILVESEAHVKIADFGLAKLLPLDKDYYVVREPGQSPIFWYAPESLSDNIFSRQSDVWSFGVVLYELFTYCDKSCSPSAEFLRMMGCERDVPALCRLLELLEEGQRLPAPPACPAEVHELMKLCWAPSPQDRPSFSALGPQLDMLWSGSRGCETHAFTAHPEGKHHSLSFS
T4 sequence (Q9UM73 19-1620): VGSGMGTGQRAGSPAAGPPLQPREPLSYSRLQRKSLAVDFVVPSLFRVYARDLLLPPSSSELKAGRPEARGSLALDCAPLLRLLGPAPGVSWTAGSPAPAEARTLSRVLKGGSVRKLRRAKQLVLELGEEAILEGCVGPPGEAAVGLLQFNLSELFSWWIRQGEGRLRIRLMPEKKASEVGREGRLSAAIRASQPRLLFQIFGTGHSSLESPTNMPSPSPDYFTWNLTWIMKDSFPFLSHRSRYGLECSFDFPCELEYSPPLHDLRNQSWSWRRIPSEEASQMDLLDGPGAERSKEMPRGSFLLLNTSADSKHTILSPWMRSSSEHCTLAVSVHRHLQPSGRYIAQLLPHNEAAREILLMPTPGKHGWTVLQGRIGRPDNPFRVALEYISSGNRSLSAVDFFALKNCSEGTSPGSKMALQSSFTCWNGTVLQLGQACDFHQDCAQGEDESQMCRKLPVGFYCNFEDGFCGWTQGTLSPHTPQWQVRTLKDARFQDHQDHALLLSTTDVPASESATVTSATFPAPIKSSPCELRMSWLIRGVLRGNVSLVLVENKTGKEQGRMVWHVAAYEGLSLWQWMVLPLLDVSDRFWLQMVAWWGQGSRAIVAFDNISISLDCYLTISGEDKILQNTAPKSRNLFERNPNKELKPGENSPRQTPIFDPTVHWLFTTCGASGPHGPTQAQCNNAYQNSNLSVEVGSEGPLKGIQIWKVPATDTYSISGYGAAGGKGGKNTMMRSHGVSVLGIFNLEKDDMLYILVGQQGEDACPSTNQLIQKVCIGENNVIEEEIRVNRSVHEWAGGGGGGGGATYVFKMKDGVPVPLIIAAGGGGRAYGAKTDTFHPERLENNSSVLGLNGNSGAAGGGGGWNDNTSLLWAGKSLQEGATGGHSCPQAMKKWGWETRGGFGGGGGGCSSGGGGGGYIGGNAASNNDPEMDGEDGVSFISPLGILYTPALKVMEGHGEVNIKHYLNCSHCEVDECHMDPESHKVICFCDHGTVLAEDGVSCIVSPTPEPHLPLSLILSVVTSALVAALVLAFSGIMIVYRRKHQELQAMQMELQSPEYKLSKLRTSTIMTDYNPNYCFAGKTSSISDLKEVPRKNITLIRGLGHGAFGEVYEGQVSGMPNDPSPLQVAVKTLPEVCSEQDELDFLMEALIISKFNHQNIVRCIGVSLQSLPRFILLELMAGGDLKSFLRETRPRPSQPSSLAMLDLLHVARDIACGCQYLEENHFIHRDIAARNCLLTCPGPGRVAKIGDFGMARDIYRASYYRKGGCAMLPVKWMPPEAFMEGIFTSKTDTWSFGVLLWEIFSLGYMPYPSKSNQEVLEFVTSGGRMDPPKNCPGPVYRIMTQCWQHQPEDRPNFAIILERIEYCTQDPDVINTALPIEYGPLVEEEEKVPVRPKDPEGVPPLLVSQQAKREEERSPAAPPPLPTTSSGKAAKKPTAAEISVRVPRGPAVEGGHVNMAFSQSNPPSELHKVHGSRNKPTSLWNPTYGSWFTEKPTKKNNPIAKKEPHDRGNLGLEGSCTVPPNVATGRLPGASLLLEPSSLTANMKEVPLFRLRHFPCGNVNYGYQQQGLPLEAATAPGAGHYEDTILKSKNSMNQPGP
T3 sequence (O60674 828-1132): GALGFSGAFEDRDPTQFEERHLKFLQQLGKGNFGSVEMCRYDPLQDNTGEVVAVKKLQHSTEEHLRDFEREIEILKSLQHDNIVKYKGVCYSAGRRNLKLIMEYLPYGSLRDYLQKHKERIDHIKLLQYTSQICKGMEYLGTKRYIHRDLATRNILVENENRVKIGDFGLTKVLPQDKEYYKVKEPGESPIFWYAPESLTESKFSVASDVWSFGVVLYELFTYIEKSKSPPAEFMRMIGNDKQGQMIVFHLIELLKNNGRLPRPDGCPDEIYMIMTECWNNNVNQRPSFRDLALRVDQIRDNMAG

Consider `O=C(Nc1ccc2cc1CCc1cncc(c1)Nc1ncc(Cl)c(n1)N2)N1CCC(S(=O)(=O)c2ccccc2)C1` (stereo not drawn) [Example B321, N-[6-Chloro-2,4,8,18,22-pentaazatetracyclo[14.3.1.1(3,7).1(9,13)]docosa-1(20),3(22),4,6,9(21),10,12,16,18-nonaen-12-yl]-3-(phenylsulfonyl)pyrrolidine-1-carboxamide bis(trifluoroacetate)], for which the IC50 in experiment [1] (Table B1) was 75 nM; on TYK2 (Table B1), more than 400 nM; in experiment [2] (Table B1), more than 400 nM; in experiment [3] (Table B1) it was 371 nM. Moreover, the “ALK % of inhibition at a concentration of 500 nM or 1 mM” value (“ALK % of inhibition” for short) in experiment [4] (setting [5]) amounted to 36%.

With `[O-][S+]1CCOc2cccc(c2)Nc2ncc(Cl)c(n2)Nc2cccc1c2` (stereo not drawn) [Example D13, 6-Chloro-17-oxa-14-thia-2,4,8,24-tetraazatetracyclo[16.3.1.1(3,7).1(9,13)]tetracosa-1(22),3(24),4,6,9(23),10,12,18,20-nonaene 14-oxide trifluoroacetate], the IC50 in experiment [1] (Table D1) is 3.6 nM; on TYK2 (Table D1), 12 nM; in experiment [2] (Table D1), 24 nM; in experiment [3] (Table D1), 2.1 nM; in experiment [4] (Table D1, 90 μM ATP), 1740 nM.

As for `O=C(Nc1ccc2cc1CCc1cccc(c1)Nc1ncc(Cl)c(n1)N2)c1ccc(C(F)(F)F)nc1` [Example B77, N-[6-Chloro-2,4,8,22-tetraazatetracyclo[14.3.1.1(3,7).1(9,13)]docosa-1(20), 3(22),4,6,9(21),10,12,16,18-nonaen-12-yl]-6-(trifluoromethyl)nicotinamide bis(trifluoroacetate)], the half-maximal inhibitory concentration (IC50) in experiment [1] (Table B1) was determined as 0.84 nM; at TYK2 (Table B1), 8 nM; in experiment [2] (Table B1) it was 7.6 nM; in experiment [3] (Table B1) it was 2.2 nM. The “ALK % of inhibition” value in experiment [4] (setting [6]) is given as 54%.

With `O=C(Nc1cc2cc(c1)OCCSc1cccc(c1)Nc1nc(ncc1Cl)N2)c1ccco1` [Example D62, N-[6-Chloro-17-oxa-14-thia-2,4,8,24-tetraazatetracyclo[16.3.1.1(3,7).1(9,13)]tetracosa-1(22),3(24),4,6,9(23),10,12,18,20-nonaen-20-yl]-2-furamide trifluoroacetate], the IC50 was 7.3 nM in experiment [1] (Table D1); 6.1 nM against TYK2 (Table D1); 18 nM in experiment [2] (Table D1); 2.1 nM in experiment [3] (Table D1); 380 nM in experiment [4] (Table D1, 90 μM ATP).

`CCCc1ccccc1NC(=O)Nc1ccc2cc1CCc1cccc(c1)Nc1ncc(Cl)c(n1)N2` [Example B105, N-[6-Chloro-2,4,8,22-tetraazatetracyclo[14.3.1.1(3,7).1(9,13)]docosa-1(20), 3(22),4,6,9(21),10,12,16,18-nonaen-12-yl]-N′-(2-propylphenyl)urea trifluoroacetate]: the IC50 in experiment [1] (Table B1) came out at 3.9 nM; against TYK2 (Table B1) it was 13 nM; in experiment [2] (Table B1), 43 nM; in experiment [3] (Table B1) it was 10 nM. The “ALK % of inhibition” value in experiment [4] (setting [6]) worked out at 52%.

Take `O=C(NCCN1CCNCC1)Nc1ccc2cc1CCc1cccc(c1)Nc1ncc(Cl)c(n1)N2` [Example B260, N-[6-Chloro-2,4,8,22-tetraazatetracyclo[14.3.1.1(3,7).1(9,13)]docosa-1(20),3(22),4,6,9(21),10,12,16,18-nonaen-12-yl]-N′-(2-piperazin-1-ylethyl)urea trihydrochloride]: the IC50 in experiment [1] (Table B1) is 4.7 nM; at TYK2 (Table B1), 20 nM; in experiment [2] (Table B1) it was 51 nM; in experiment [3] (Table B1), 9.9 nM. In addition, the “ALK % of inhibition” value in experiment [4] (setting [6]) came to 26%.

Consider `CCC(=O)N1CCC(CC(=O)Nc2ccc3cc2CCc2cncc(c2)Nc2ncc(Cl)c(n2)N3)CC1` [Example A104, N-[6-Chloro-2,4,8,18,22-pentaazatetracyclo[14.3.1.1(3,7).1(9,13)]docosa-1(20),3(22),4,6,9(21),10,12,16,18-nonaen-12-yl]-2-(1-propionylpiperidin-4-yl)acetamide bis(trifluoroacetate)], for which the IC50 turned out to be 81 nM in experiment [1] (setting [7]), 4.4 nM on TYK2, 148 nM in experiment [2] (setting [8]) and 8.3 nM in experiment [3] (setting [9]). For the same compound, the “ALK % of inhibition” value in experiment [4] (setting [10]) was determined as 26%.

For the compound `O=C(Nc1ccc2cc1CCc1cncc(c1)Nc1ncc(Cl)c(n1)N2)N[C@H]1CCN(C(=O)c2cc(C3CC3)on2)C1` [Example B270, N-[6-Chloro-2,4,8,18,22-pentaazatetracyclo[14.3.1.1(3,7).1(9,13)]docosa-1(20),3(22),4,6,9(21),10,12,16,18-nonaen-12-yl]-N′-{(3S)-1-[(5-cyclopropylisoxazol-3-yl)carbonyl]pyrrolidin-3-yl}urea bis(trifluoroacetate)], the IC50 is 20 nM in experiment [1] (Table B1), 607 nM on TYK2 (Table B1), more than 10000 nM in experiment [2] (Table B1) and 279 nM in experiment [3] (Table B1). Also, the “ALK % of inhibition” value in experiment [4] (setting [6]) is listed as 10%.

On to `O=C(Nc1ccc(F)c(Cl)c1)c1cc2cc(c1)Nc1nc(ncc1Cl)Nc1cccc(c1)CC2` [Example B7, 6-Chloro-N-(3-chloro-4-fluorophenyl)-2,4,8,22-tetraazatetracyclo[14.3.1.1(3,7).1(9,13)]docosa-1(20),3(22),4,6,9(21),10,12,16,18-nonaene-11-carboxamide trifluoroacetate], for which the IC50 in experiment [1] (Table B1) was more than 1000 nM; at TYK2 (Table B1) it was more than 1000 nM; in experiment [2] (Table B1), more than 1000 nM; in experiment [3] (Table B1) it was 700 nM; in experiment [4] (setting [11]) it was more than 10000 nM.

Consider `CN(C)S(=O)(=O)NCCNC(=O)Nc1ccc2cc1CCc1cccc(c1)Nc1ncc(Cl)c(n1)N2` [Example B328, N-[6-chloro-2,4,8,22-tetraazatetracyclo[14.3.1.1(3,7).1(9,13)]docosa-1(20),3(22),4,6,9(21),10,12,16,18-nonaen-12-yl]-N′-(2-{[(dimethylamino)sulfonyl]amino}ethyl)urea trifluoroacetate], for which the IC50 worked out at 18 nM in experiment [1] (Table B1), 7.1 nM on TYK2 (Table B1), 24 nM in experiment [2] (Table B1) and 25 nM in experiment [3] (Table B1). For the same compound, the “ALK % of inhibition” value in experiment [4] (setting [5]) is on record as 16%.

As to `O=C(Nc1ccc2cc1CCc1cccc(c1)Nc1ncc(Cl)c(n1)N2)C1CCCNC1` (stereo not drawn) [Example A44, N-[6-Chloro-2,4,8,22-tetraazatetracyclo[14.3.1.1(3,7).1(9,13)]docosa-1(20), 3(22),4,6,9(21),10,12,16,18-nonaen-12-yl]piperidine-3-carboxamide bis(trifluoroacetate)], the IC50 is 26 nM in experiment [1] (setting [7]), 169 nM on TYK2, 71 nM in experiment [2] (setting [8]) and 52 nM in experiment [3] (setting [9]). Besides, the “ALK % of inhibition” value in experiment [4] (setting [10]) came out at 21%.

`Cc1cc(C(=O)N2CCC(C(=O)Nc3ccc4cc3CCc3cccc(c3)Nc3ncc(Cl)c(n3)N4)CC2)no1` [Example A120, N-[6-Chloro-2,4,8,22-tetraazatetracyclo[14.3.1.1(3,7).1(9,13)]docosa-1(20),3(22),4,6,9(21),10,12,16,18-nonaen-12-yl]-1-[(5-methylisoxazol-3-yl)carbonyl]piperidine-4-carboxamide trifluoroacetate]: the IC50 in experiment [1] (setting [7]) worked out at 21 nM; at TYK2, 37 nM; in experiment [2] (setting [8]), 112 nM; in experiment [3] (setting [9]) it was 16 nM. In addition, the “ALK % of inhibition” value in experiment [4] (setting [10]) worked out at 42%.

In the case of `O=C(NCc1ccccc1)N1CCN(c2cc(-c3cc4cc(c3)Nc3ncc(Cl)c(n3)Nc3cccc(c3)OCC4)ccn2)CC1` [Example D45, N-Benzyl-4-{4-[6-chloro-14-oxa-2,4,8,23-tetraazatetracyclo[15.3.1.1(3,7).1(9,13)]tricosa-1(21),3(23),4,6,9(22),10,12,17,19-nonaen-19-yl]pyridin-2-yl}piperazine-1-carboxamide bis(trifluoroacetate)], the IC50 amounted to 8.1 nM in experiment [1] (Table D1); 13 nM against TYK2 (Table D1); 36 nM in experiment [2] (Table D1); 3 nM in experiment [3] (Table D1); 340 nM in experiment [4] (Table D1, 90 μM ATP).

On to `CC(C)(C)c1ccc(C(=O)Nc2ccc3cc2CCc2cccc(c2)Nc2ncc(Cl)c(n2)N3)cc1` [Example B73, 4-tert-Butyl-N-[6-chloro-2,4,8,22-tetraazatetracyclo[14.3.1.1(3,7).1(9,13)]docosa-1(20),3(22),4,6,9(21),10,12,16,18-nonaen-12-yl]benzamide trifluoroacetate], for which the IC50 in experiment [1] (Table B1) turned out to be 80 nM; at TYK2 (Table B1), 154 nM; in experiment [2] (Table B1) it was 178 nM; in experiment [3] (Table B1), 103 nM. In addition, in experiment [4] (setting [6]), the “ALK % of inhibition” value came to 21%.

As for `CC(C)S(=O)(=O)Nc1ccc2cc1CCc1cccc(c1)Nc1ncc(Cl)c(n1)N2` [Example B143, N-[6-Chloro-2,4,8,22-tetraazatetracyclo[14.3.1.1(3,7).1(9,13)]docosa-1(20), 3(22),4,6,9(21),10,12,16,18-nonaen-12-yl]propane-2-sulfonamide trifluoroacetate], the IC50 is 11 nM in experiment [1] (Table B1); 13 nM on TYK2 (Table B1); 104 nM in experiment [2] (Table B1); 2.8 nM in experiment [3] (Table B1); more than 1000 nM in experiment [4] (setting [11]).

(Values after US8871753B2, “Macrocyclic compounds and their use as kinase inhibitors” (Incyte Corporation, priority 2008, dated 2014).)
